Drawing on PubChem BioAssay (NCI), this text covers TGI and GI50 for nine compounds.

What all share (assay): growth of human tumour cells (NCI), 48 h
The test system of test [1] is HCT-116 colon.
For test [2], the system named is MDA-MB-435.
The subject of test [3] is CAKI-1 renal.
In test [4] the test system is HT29 colon.
Test [5] concerns OVCAR-8 ovarian.
For test [6], the system named is PC-3 prostate.
The subject of test [7] is SK-OV-3 ovarian.
The test system of test [8] is HS 578T breast.
Test [9] concerns T-47D breast.
Test [10] concerns HCC-2998 colon.

Each structure is given as a SMILES string. Several values for one entry are separate records, joined by “and”; a condition that tells them apart may be missing. Equal entries are not always repeated.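 Each compound was tested at five concentrations against cells in 96-well plates for 48 hours. GI50 marks 50% less growth. TGI is the concentration that stops growth completely.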

Turning to `CC(C)C1=Cc2ccc3c(c2C(=O)C1=O)CCCC3`, the TGI in [1] came to 5.39 µM; in test [2] it was 21.4 µM; in test [3] it was 2.15 µM; in test [4], 25.1 µM; in [5], 13.4 µM; in test [6], 26.8 µM. Also, the TGI in test [7] is 30.5 µM; in test [8], 55.9 µM; in test [9], 0.567 µM; in test [10], 30.9 µM.

Take `Oc1ccc(N=Nc2ccc(Br)cc2)c(O)c1`: the GI50 in test [1] is 3.25 µM; in test [2] it was 1.25 µM; in test [3], 4 µM; in [4] it was 15.5 µM; in test [5] it was 3.69 µM; in [6] it was 3.08 µM. The GI50 was 3.24 µM in [7], 2.2 µM in test [8], 2.93 µM in test [9] and 3.55 µM in [10]. Also, the TGI in test [1] was determined as 14.1 µM; in test [2], 3.65 µM; in test [3], 21 µM; in test [4], 77.9 µM; in test [5], 21.2 µM; in test [6], 21.7 µM. The TGI in test [7] came out at 18.3 µM; in test [8], 6.77 µM; in [9], 42.3 µM; in test [10] it was 12 µM.

For the compound `CCNCC(=O)Nc1ccc2c(c1)C(=O)c1ccc(NC(=O)CNCC)cc1C2=O`, the TGI in test [1] is 7.52 µM; in test [2], 6.18 µM; in test [3] it was 29.6 µM; in test [4], 9.87 µM; in [5], 15.1 µM; in test [6], more than 100 µM. Also, the TGI in [7] amounted to 9.48 µM; in test [8], 22.1 µM; in [9] it was 17.1 µM; in test [10], 3.75 µM.

As to `Cn1cnc([N+](=O)[O-])c1S(=O)(=O)Oc1ccc(Cl)cc1`, the GI50 in [1] is 8.59 µM; in [2] it was 16.2 µM; in test [3] it was 1.67 µM; in test [4], 2.33 µM; in test [5], 18.8 µM; in test [6], 17.2 µM. For the same compound, the GI50 in test [7] is 50.5 µM; in test [8] it was 19.6 µM; in [9], 2.21 µM; in [10], 15.9 µM. Besides, the TGI amounted to 21.8 µM in test [1]; 36.2 µM in test [2]; 3.51 µM in [3]; 5.36 µM in test [4]; 97.1 µM in test [5]; 49.2 µM in [6]. Further, the TGI in test [7] is more than 100 µM; in test [8], 68.1 µM; in [9] it was 6.3 µM; in test [10] it was 30.2 µM.

Consider `Clc1cc(Br)ccc1-c1ccc(CNCC2CCNCC2)o1`, for which the GI50 is 1.69 µM in [1]; 1.84 µM in [2]; 1.85 µM in test [3]; 1.44 µM in test [4]; 2.19 µM in [5]; 1.64 µM in [6]. The GI50 in [7] was 1.99 µM; in [8], 1.91 µM; in [9] it was 1.98 µM; in [10], 1.86 µM. Further, the TGI amounted to 3.97 µM in test [1]; 3.46 µM in [2]; 3.58 µM in [3]; 3.11 µM in [4]; 5.15 µM in test [5]; 3.3 µM in test [6]. The TGI in [7] turned out to be 3.86 µM; in [8], 4.37 µM; in test [9], 3.93 µM; in test [10], 3.45 µM.

`Oc1nc(N2CCOCC2)sc1/C=C1\C=Nc2ccccc21`: the GI50 in [1] is more than 100 µM; in test [2] it was more than 100 µM; in [3], more than 100 µM; in test [4] it was 65.2 µM; in [5], more than 100 µM; in test [6], more than 100 µM. In addition, the GI50 in [7], in [8], in [9] and in test [10] was more than 100 µM in each case. For the same compound, the TGI in test [1], in test [2], in test [3], in [4], in test [5] and in test [6] was more than 100 µM in each case. Besides, the TGI in test [7], in test [8], in test [9] and in test [10] was more than 100 µM each time.

As to `CC(=O)OCC1OC(SC2=N/C(=C\c3ccc(Br)s3)C(=O)N2c2ccccc2)C(OC(C)=O)C(OC(C)=O)C1OC(C)=O` (stereo not given), the GI50 in test [1] was 25.5 µM and 61.2 µM; in test [2] it was 86.3 µM and 32.2 µM; in test [3], 13.4 µM and 85.7 µM; in test [4], > 100 µM and 28.6 µM; in test [5] it was 27.9 µM and 70.3 µM; in [9], 96.5 µM and 27.8 µM. Further, the TGI in [1] was more than 100 µM; in [2] it was more than 100 µM; in [3] it was 32.5 µM and > 100 µM; in test [4], more than 100 µM; in [5], more than 100 µM; in test [6], more than 100 µM. Besides, the TGI in [8] is 78.4 µM and > 100 µM; in [9], more than 100 µM; in test [10], more than 100 µM.

Turning to `COc1cccc(/C=C2\CCC(CN(C)C)C2=O)c1` (stereo not given), the TGI is 16 µM in test [1]; 7.02 µM in test [2]; 15.7 µM in [3]; 40.7 µM in [4]; 9.55 µM in test [5]; 27.2 µM in test [6]. The TGI in test [7] is 29.2 µM; in test [8], more than 89.4 µM; in [9] it was 16.6 µM; in test [10], 24.4 µM.

Consider `CCCN(CCC)c1ccc(/C=N/NC(=O)c2cccnc2)c(C)c1`, for which the GI50 was 13.8 µM in [1]; 5.67 µM in test [2]; 19.2 µM in test [3]; 8.54 µM in test [4]; 18 µM in test [5]; 16.8 µM in test [6]. In addition, the GI50 is 18.1 µM in [7], 13.9 µM in test [8], 6.35 µM in test [9] and 14.3 µM in test [10]. Moreover, the TGI in test [1] was 29.3 µM; in test [2], 20.8 µM; in [3] it was 58.7 µM; in test [4] it was 25.2 µM; in [5], 44.1 µM; in [6], 67.7 µM. Besides, the TGI in test [7] came out at 46.9 µM; in test [8], 48.2 µM; in [9], 27.6 µM; in [10], 32.1 µM.
